{"source": "ChEMBL document CHEMBL1157002", "about": "“SAR of a series of inhaled A(2A) agonists and comparison of inhaled pharmacokinetics in a preclinical model with clinical pharmacokinetic data” (Bioorg Med Chem Lett, 2009)", "key": {"Adenosine receptor A2a": {"molecular_target": "Adenosine receptor A2a (Homo sapiens, UniProt P29274)", "sequence (P29274 whole entry)": "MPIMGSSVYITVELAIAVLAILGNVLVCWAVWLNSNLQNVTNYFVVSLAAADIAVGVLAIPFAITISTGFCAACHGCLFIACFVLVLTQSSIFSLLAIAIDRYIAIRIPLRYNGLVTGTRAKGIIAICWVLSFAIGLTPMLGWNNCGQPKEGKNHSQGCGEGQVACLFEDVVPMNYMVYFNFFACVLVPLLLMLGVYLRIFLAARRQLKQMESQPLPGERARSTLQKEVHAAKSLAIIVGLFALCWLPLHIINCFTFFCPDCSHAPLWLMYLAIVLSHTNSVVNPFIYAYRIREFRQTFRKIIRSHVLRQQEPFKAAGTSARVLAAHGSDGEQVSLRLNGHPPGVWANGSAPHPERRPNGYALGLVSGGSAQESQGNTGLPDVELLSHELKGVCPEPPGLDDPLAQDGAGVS", "description": "Agonist activity at adenosine A2A receptor in fMLP-stimulated human neutrophils assessed as inhibition of superoxide production by colorimetric analysis"}, "Rattus norvegicus [1]": {"tested_on": "Rattus norvegicus", "assay": "Unbound clearance in rat at 1 mg/kg, iv", "type": "ADME, organism-based", "parameters": "dose 1 mg/kg, route intravenous", "conditions": "in vivo"}, "Rattus norvegicus [2]": {"tested_on": "Rattus norvegicus", "assay": "Dose normalized fCmax in rat (dose normalized to 1 mg/kg)", "type": "ADME, organism-based", "parameters": "dose 1 mg/kg", "conditions": "in vivo"}, "[3]": {"assay": "Lipophilicity, log D at pH 7.4", "type": "physicochemical", "conditions": "buffer"}, "Cavia porcellus [4]": {"tested_on": "Cavia porcellus", "assay": "Inhibition of capsaicin-induced bronchoconstriction in it dosed guinea pig up to 5 hrs", "type": "functional, organism-based"}, "Cavia porcellus [5]": {"tested_on": "Cavia porcellus", "assay": "Toxicity in it dosed guinea pig assessed as decrease of diastolic blood pressure", "type": "organism-based, Artery", "conditions": "in vivo, inhaled_or_intranasal"}, "[6]": {"assay": "Intrinsic clearance in human liver microsomes", "type": "ADME, Microsome"}, "Homo sapiens [7]": {"tested_on": "Homo sapiens", "assay": "Dose normalized fCmax in human at 800 ug administered by aerosol device measured up to 4 hrs (dose normalized to 1 mg/kg)", "type": "ADME, organism-based", "parameters": "dose 1 mg/kg", "conditions": "in vivo"}, "Cavia porcellus [8]": {"species_on_record": "Cavia porcellus", "assay": "Inhibition of capsaicin-induced bronchoconstriction in guinea pig at 10 ug up to 8 hrs", "type": "functional, organism-based"}, "Homo sapiens [9]": {"tested_on": "Homo sapiens", "assay": "Dose normalized fCmax in human at 400 ug administered by aerosol device measured up to 4 hrs (dose normalized to 1 mg/kg)", "type": "ADME, organism-based", "parameters": "dose 1 mg/kg", "conditions": "in vivo"}, "[10]": {"assay": "Half life in human at 100 to 1600 ug administered by aerosol device", "type": "ADME, organism-based", "conditions": "in vivo, inhaled or intranasal"}, "Homo sapiens [11]": {"tested_on": "Homo sapiens", "assay": "Dose normalized fCmax in human at 200 ug administered by aerosol device measured up to 4 hrs (dose normalized to 1 mg/kg)", "type": "ADME, organism-based", "parameters": "dose 1 mg/kg", "conditions": "in vivo"}, "Homo sapiens [12]": {"tested_on": "Homo sapiens", "assay": "Dose normalized fCmax in human at 100 ug administered by aerosol device measured up to 4 hrs (dose normalized to 1 mg/kg)", "type": "ADME, organism-based", "parameters": "dose 1 mg/kg", "conditions": "in vivo"}, "Homo sapiens [13]": {"tested_on": "Homo sapiens", "assay": "Dose normalized fCmax in human at 1600 ug administered by aerosol device measured up to 4 hrs (dose normalized to 1 mg/kg)", "type": "ADME, organism-based", "parameters": "dose 1 mg/kg", "conditions": "in vivo"}, "Homo sapiens [14]": {"tested_on": "Homo sapiens", "assay": "Toxicity in human assessed as increase of sitting blood pressure at 200 to 1600 ug administered by aerosol device", "type": "organism-based", "conditions": "in vivo, inhaled_or_intranasal"}}, "note": "pIC50: −log10 of the molar value. Active and inactive are the calls of the source. The rule behind the calls is not given here.", "data": [{"smiles": "CCNC(=O)[C@H]1O[C@@H](n2cnc3c(NCC(c4ccccc4)c4ccccc4)nc(C(=O)NCCNC(=O)NCc4ccccn4)nc32)[C@H](O)[C@@H]1O", "values": [{"measurement": "pIC50", "setting": "Adenosine receptor A2a", "value": 8.40}]}, {"smiles": "CCNC(=O)[C@H]1O[C@@H](n2cnc3c(NCC(c4ccccc4)c4ccccc4)nc(C(=O)NCCN(C)C(=O)NCCN4CCCCC4)nc32)[C@H](O)[C@@H]1O", "values": [{"measurement": "pIC50", "setting": "Adenosine receptor A2a", "value": 6.52}]}, {"smiles": "CCNC(=O)[C@H]1O[C@@H](n2cnc3c(NCC(c4ccccc4)c4ccccc4)nc(CNC(=O)NCCN(C(C)C)C4CCCC4)nc32)[C@H](O)[C@@H]1O", "values": [{"measurement": "CL free", "setting": "Rattus norvegicus [1]", "value": 210, "unit": "L/h/kg"}, {"measurement": "Cmax_unbound", "setting": "Rattus norvegicus [2]", "value": 1.8, "unit": "nM"}, {"measurement": "logD", "setting": "[3]", "value": 2}]}, {"smiles": "CCNC(=O)[C@H]1O[C@@H](n2cnc3c(NCC(c4ccccc4)c4ccccc4)nc(CNC(=O)NCCN4CCCCC4)nc32)[C@H](O)[C@@H]1O", "values": [{"measurement": "Activity", "setting": "Cavia porcellus [4]", "value": "Active"}, {"measurement": "Activity", "setting": "Cavia porcellus [5]", "value": "Non-toxic"}]}, {"smiles": "CCNC(=O)[C@H]1O[C@@H](n2cnc3c(NCC(c4ccccc4)c4ccccc4)nc(C(=O)NCCNC(=O)NCCN(C(C)C)C(C)C)nc32)[C@H](O)[C@@H]1O", "values": [{"measurement": "microsomal CLint", "setting": "[6]", "value": 81, "unit": "µL/min/mg"}, {"measurement": "CL free", "setting": "Rattus norvegicus [1]", "value": 45, "unit": "L/h/kg"}, {"measurement": "pIC50", "setting": "Adenosine receptor A2a", "value": 8.30}, {"measurement": "Cmax_unbound", "setting": "Rattus norvegicus [2]", "value": 12.3, "unit": "nM"}, {"measurement": "logD", "setting": "[3]", "value": 0.9}]}, {"smiles": "CCNC(=O)[C@H]1O[C@@H](n2cnc3c(NCC(c4ccccc4)c4ccccc4)nc(C(=O)NCCNC(=O)NCc4ccc(C(=O)O)cc4)nc32)[C@H](O)[C@@H]1O", "values": [{"measurement": "pIC50", "setting": "Adenosine receptor A2a", "value": 9.40}]}, {"smiles": "CCNC(=O)[C@H]1O[C@@H](n2cnc3c(NCC(c4ccccc4)c4ccccc4)nc(C(=O)NCCNC(=O)NC4CCN(c5ccccn5)CC4)nc32)[C@H](O)[C@@H]1O", "note": "[UK432097]", "values": [{"measurement": "Cmax_unbound", "setting": "Homo sapiens [7]", "value": 0.19, "unit": "nM"}, {"measurement": "Activity", "setting": "Cavia porcellus [8]", "value": "Active"}, {"measurement": "microsomal CLint", "setting": "[6]", "value": "> 255", "unit": "µL/min/mg"}, {"measurement": "Cmax_unbound", "setting": "Homo sapiens [9]", "value": 0.19, "unit": "nM"}, {"measurement": "half-life", "setting": "[10]", "value": 3, "unit": "h"}, {"measurement": "CL free", "setting": "Rattus norvegicus [1]", "value": 330, "unit": "L/h/kg"}, {"measurement": "Cmax_unbound", "setting": "Homo sapiens [11]", "value": 0.3, "unit": "nM"}, {"measurement": "Cmax_unbound", "setting": "Homo sapiens [12]", "value": 0.45, "unit": "nM"}, {"measurement": "Cmax_unbound", "setting": "Rattus norvegicus [2]", "value": 0.2, "unit": "nM"}, {"measurement": "Cmax_unbound", "setting": "Homo sapiens [13]", "value": 0.12, "unit": "nM"}, {"measurement": "Activity", "setting": "Homo sapiens [14]", "value": "Toxic"}]}, {"smiles": "CCNC(=O)[C@H]1O[C@@H](n2cnc3c(NCC(c4ccccc4)c4ccccc4)nc(C(=O)NCCNC(=O)NCCc4ccccc4)nc32)[C@H](O)[C@@H]1O", "values": [{"measurement": "pIC50", "setting": "Adenosine receptor A2a", "value": 8.00}]}, {"smiles": "CCNC(=O)[C@H]1O[C@@H](n2cnc3c(NCC(c4ccccc4)c4ccccc4)nc(C(=O)NCCNC(=O)NCc4ccccc4)nc32)[C@H](O)[C@@H]1O", "values": [{"measurement": "pIC50", "setting": "Adenosine receptor A2a", "value": 8.22}]}, {"smiles": "CCNC(=O)[C@H]1O[C@@H](n2cnc3c(NCC(c4ccccc4)c4ccccc4)nc(C(=O)NCCNC(=O)NCc4ccc(CN(CC)CC)cc4)nc32)[C@H](O)[C@@H]1O", "values": [{"measurement": "pIC50", "setting": "Adenosine receptor A2a", "value": 8.30}]}, {"smiles": "CCNC(=O)[C@H]1O[C@@H](n2cnc3c(NCC(c4ccccc4)c4ccccc4)nc(C(=O)NCCNC(=O)NCCN4CCc5ccccc5C4)nc32)[C@H](O)[C@@H]1O", "values": [{"measurement": "pIC50", "setting": "Adenosine receptor A2a", "value": 8.00}]}, {"smiles": "O=C(NCCNC(=O)c1nc(NCC(c2ccccc2)c2ccccc2)c2ncn([C@@H]3O[C@H](CO)[C@@H](O)[C@H]3O)c2n1)NCCN1CCCCC1", "values": [{"measurement": "pIC50", "setting": "Adenosine receptor A2a", "value": 7.35}]}, {"smiles": "CCNC(=O)[C@H]1O[C@@H](n2cnc3c(NCC(c4ccccc4)c4ccccc4)nc(C(=O)NCCNC(=O)NCCN4CCCCC4)nc32)[C@H](O)[C@@H]1O", "values": [{"measurement": "pIC50", "setting": "Adenosine receptor A2a", "value": 8.30}]}, {"smiles": "CCNC(=O)[C@H]1O[C@@H](n2cnc3c(NCC(c4ccccc4)c4ccccc4)nc(C(=O)NCCNC(=O)NCCN(C(C)C)C4CCCC4)nc32)[C@H](O)[C@@H]1O", "values": [{"measurement": "pIC50", "setting": "Adenosine receptor A2a", "value": 8.15}]}]}
